The subject of the experiment is histamine release, RBL-2H3 cells. As to the kind of experiment: Histamine release from IgE-sensitized, DNP-BSA stimulated RBL-2H3 cells (ELISA). The experiment is classed as cell-based. The settings on record: for Percent Control of Histamine Release (Table VII): 10 ng/ml, in combinations each part at 10 ng/ml; for Percent Control, Histamine Release (Table VIII): 1 μg/ml. On the procedure:
The methodology used to obtain the results of FIG. 9 will now be described. First, RBL-2H3 cells, available from ATCC (American Type Culture Collection) of Manassas, Va., were plated in 24 well plates at 5×10^4/well. Following adherence, the cells were exposed to the ingredients or combination of ingredients noted in FIG. 9, also referred to as samples. The samples were used at the concentrations noted in Table VI. Stock solutions of all samples were prepared in a solution of DMSO, ethanol, and water present in a ratio of 5:3:2 at 100 mg/ml. Each sample was then diluted in media to the final concentration. The cells were then incubated overnight with the samples. The following day a mouse anti-dinitrophenyl (DNP) IgE antibody, available from Sigma of St. Louis, Mo., was added to the cells at a final concentration of 1 ng/ml. The cells were incubated for 1.5 hr at 37° C. to allow binding of the IgE molecule to the cellular IgE receptor via the constant region of the antibody. Following this incubation period, the cells were washed twice. A solution containing DNP conjugated to BSA (DNP-BSA), available from Calbiochem of San Diego, Calif., was added to the cells at 0.5 ng/ml. The cells were incubated an additional 1 hr at 37° C. The supernatants were assayed for the presence of histamine, PGD2 and/or LTC4 using ELISA kits commercially available from Cayman Chemical of Ann Arbor, Mich. according to the manufacturer's specifications. Next, the measured OD450 data from the ELISA was inputted into a calibration graph to determine the amount by which histamine was reduced relative to an untreated control sample. An example of a histamine calibration graph is illustrated in FIG. 10. Suffice it to say that calibration graphs for PGD2 and LTC4 are similar. The calibration graph in FIG. 10 was generated by measuring the OD450 of multiple, known concentrations of purified histamine. As shown in the graph, the X-axis indicates the concentrations of the histamine in nanomolar; and the Y-axis indicates the OD450 derived from each of the concentrations. The line 120 connects the data points, while line 130 is a trend line corresponding to the equation in this particular embodiment of: Y=−0.0025X^2+0.2915X+2.0775 Equation 2 With the histamine calibration graph, the amount of histamine for each sample was determined, and the subsequent data was input into Table VI and FIG. 9 for comparative analysis.
Background: In an ELISA, binding on a coated surface is turned into a signal by an enzyme label.

Molecules are shown by their SMILES.

The source of these data is patent publication US7384656B2, “Anti-allergy composition and related method” (Access Business Group International LLC, priority 2004, dated 2008).

As for `O=c1cc(-c2ccc(O)c(O)c2)oc2cc(O)cc(O)c12` [Luteolin], the “Percent Control of Histamine Release (Table VII)” value (shortened to “Percent Control … (Table VII)”) is 88.1% and the “Percent Control, Histamine Release (Table VIII)” value is “about 100%”. Further, the “Percent Control … (Table VII)” value (listed as luteolin) is on record as “about 88%”. Besides, under “listed as luteolin from Perilla leaf”, the “Percent Control … (Table VII)” value is recorded as “about 88%”. Moreover, the “Percent Control of Histamine Release (Table VI)” value (100 ng/ml) came to 10%. Also, the “Percent Control, Histamine Release (Table VIII)” value (listed as Luteolin from Perilla seed) is given as 99.9%.
